The target of the test is dopamine transporter (DAT) (Rattus norvegicus (Rat), UniProt P23977). As to the kind of experiment: [3H]dopamine (DA) uptake inhibition in rat brain (caudate) synaptosomes. Type of test: biochemical. Conditions: rat caudate synaptosomes, 5 nM [3H]dopamine, mean ± SD. How it is done:
Uptake inhibition assay for the dopamine transporter was conducted in rat brain synaptosomes as described elsewhere with minor modifications (Rothman et al., Synapse 39, 32-41 (2001)). Freshly removed caudate was homogenized in 10% ice-cold sucrose with 12 strokes of a hand-held Potter-Elvehjem homogenizer followed by centrifugation at 1000×g for 10 min. The supernatants were saved on ice and used immediately. Transporter activity was assessed using 5 nM [^3H]dopamine. The assay buffer was Krebs-phosphate buffer containing 154.4 mM NaCl, 2.9 mM KCl, 1.1 mM CaCl2, 0.83 mM MgCl2, 5 mM glucose, 1 mg/mL ascorbic acid, and 50 μM pargyline. The selectivity of the uptake assay for DAT was optimized by including 100 nM citalopram and 100 nM desipramine as blockers of SERT and NET in the sucrose solution and assay buffer. Uptake inhibition assays were conducted at 25° C. and were initiated by adding 100 μl of tissue to 900 μL assay buffer containing test drug and [^3H]dopamine. Test drugs were diluted in assay buffer containing 1 mg/mL bovine serum albumin. Nonspecific uptake was measured by incubating in the presence of 10 μM indatraline. The reactions were stopped after 15 minutes by rapid vacuum filtration with a cell harvester (BRANDEL) over GF/B filters (Whatman) presoaked in wash buffer maintained at 25° C. (10 mM Tris-HCl, pH 7.4/150 mM NaCl). Filters were rinsed with 6 mL wash buffer and retained tritium was quantified by a MicroBeta liquid scintillation counter (PerkinElmer) after overnight extraction in 0.6 mL of liquid scintillation cocktail (Cytoscint, ICN). The data from three experiments were pooled and fit to a dose-response curve equation (using Kaleidagraph), to yield an Emax and EC50 value.
All of the test compounds were synthesized as described herein. Next, 8-point dose-response curves were generated for each compound (1-20,000 nM) in the [^3H]DA uptake assay. The data from three experiments were pooled and fit to a dose-response curve equation (using KaleidaGraph; Synergy Software, Reading, Pa.) to yield an Emax and IC50 value. […] Selected compounds were also tested for their ability to inhibit [^3H]WIN35428 binding to rat caudate DAT.
Sequence of dopamine transporter (DAT) (P23977 whole entry): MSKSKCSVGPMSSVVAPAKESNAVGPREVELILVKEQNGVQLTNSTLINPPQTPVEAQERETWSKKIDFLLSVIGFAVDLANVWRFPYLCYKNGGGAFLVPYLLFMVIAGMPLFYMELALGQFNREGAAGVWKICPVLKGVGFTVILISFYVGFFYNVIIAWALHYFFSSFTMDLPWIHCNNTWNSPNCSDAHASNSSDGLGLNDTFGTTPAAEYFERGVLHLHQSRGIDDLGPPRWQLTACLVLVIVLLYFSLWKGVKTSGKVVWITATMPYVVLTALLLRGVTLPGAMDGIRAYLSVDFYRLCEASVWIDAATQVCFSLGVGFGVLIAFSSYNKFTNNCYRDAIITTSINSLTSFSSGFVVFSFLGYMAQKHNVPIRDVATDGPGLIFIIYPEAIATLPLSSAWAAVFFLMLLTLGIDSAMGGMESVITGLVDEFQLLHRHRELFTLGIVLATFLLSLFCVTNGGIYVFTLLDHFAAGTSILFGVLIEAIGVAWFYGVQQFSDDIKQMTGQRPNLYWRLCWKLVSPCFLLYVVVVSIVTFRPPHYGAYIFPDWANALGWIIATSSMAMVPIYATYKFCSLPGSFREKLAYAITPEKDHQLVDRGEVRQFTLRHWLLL
On to `CS(=O)(=O)Nc1ccc(-c2nc(NCCc3ccccc3)c3ccccc3n2)cc1` [Compound 37, N-(4-(4-(phenethylamino)quinazolin-2-yl)phenyl)methanesulfonamide], for which the “DA Uptake Emax” value was 86 ± 6 % I and the EC50 is 159 ± 54 nM.

As for `CN(C)c1ccc(-c2nc(NCC(c3ccccc3)c3ccccn3)c3ccccc3n2)cc1` (stereo not shown) [Compound 3, 2-(4-(dimethylamino)phenyl)-N-(2-phenyl-2-(pyridin-2-yl)ethyl)quinazolin-4-amine], the “DA Uptake Emax” value is 91 ± 4 % I and the EC50 was 22 ± 6 nM.

As to `Cc1ccc(-c2nc(NCC(c3ccccc3)c3cccc(Cl)n3)c3ccccc3n2)cc1` (stereo not shown) [Compound 1, N-(2-(6-chloropyridin-2-yl)-2-phenylethyl)-2-(p-tolyl)quinazolin-4-amine], the “DA Uptake Emax” value stood at 100 % I and the EC50 was 380 nM.

With `CCN(CC)C(=O)[C@]1(c2ccccc2)C[C@@H]1CNc1nc(-c2ccc(N(C)C)cc2)nc2ccccc12` [Compound 46, (1R,2S)-2-(((2-(4-(dimethylamino)phenyl)quinazolin-4-yl)amino)methyl)-N,N-diethyl-1-phenylcyclopropanecarboxamide], the “DA Uptake Emax” value is reported as 93 ± 1 % I and the half-maximal effective concentration (EC50) is 243 ± 18 nM.

As to `CS(=O)(=O)Nc1ccc(-c2nc(NCC(c3ccccc3)c3cccnc3)c3ccccc3n2)cc1` (stereo not shown) [Compound 25, N-(4-(4-((2-phenyl-2-(pyridin-3-yl)ethyl)amino)quinazolin-2-yl)phenyl)methanesulfonamide], the “DA Uptake Emax” value turned out to be 73 ± 2 % I and the EC50 was 25 ± 4 nM.

On to `CS(=O)(=O)Nc1ccc(-c2nc(NCC(c3ccccc3)N3CCCC3)c3ccccc3n2)cc1` (stereo not shown) [Compound 20, N-(4-(4-((2-phenyl-2-(pyrrolidin-1-yl)ethyl)amino)quinazolin-2-yl)phenyl)methanesulfonamide], for which the “DA Uptake Emax” value was determined as 79 ± 5 % I and the EC50 turned out to be 160 ± 51 nM.

`CS(=O)(=O)Nc1ccc(-c2nc(NCC(c3ccccc3)N3CCCCC3)c3ccccc3n2)cc1` (stereo not shown) [Compound 17, N-(4-(4-((2-phenyl-2-(piperidin-1-yl)ethyl)amino)quinazolin-2-yl)phenyl)methanesulfonamide]: the “DA Uptake Emax” value is recorded as 83 ± 5 % I and the EC50 stood at 62 ± 20 nM.

As to `CS(=O)(=O)Nc1ccc(-c2nc(NCC(c3ccccc3)C3CCCCC3)c3ccccc3n2)cc1` (stereo not shown) [Compound 6, N-(4-(4-((2-cyclohexyl-2-phenylethyl)amino)quinazolin-2-yl)phenyl)methanesulfonamide], the “DA Uptake Emax” value worked out at 75 ± 2 % I and the EC50 was 16 ± 2 nM.

As for `CN(C)c1ccc(-c2nc(NCC(c3cccnc3)c3ccc[nH]3)c3ccccc3n2)cc1` (stereo not shown) [Compound 31, 2-(4-(dimethylamino)phenyl)-N-(2-(pyridin-3-yl)-2-(1H-pyrrol-2-yl)ethyl)quinazolin-4-amine], the “DA Uptake Emax” value was 85 ± 4 % I and the EC50 stood at 47 ± 12 nM.

Take `CS(=O)(=O)Nc1ccc(-c2nc(NC(CCc3ccccc3)c3ccccc3)c3ccccc3n2)cc1` (stereo not shown) [Compound 42, N-(4-(4-((1,3-diphenylpropyl)amino)quinazolin-2-yl)phenyl)methanesulfonamide]: the “DA Uptake Emax” value amounted to 72 ± 2 % I and the EC50 stood at 71 ± 11 nM.

Regarding `CS(=O)(=O)Nc1ccc(-c2nc(NCC(c3ccccc3)c3ccccn3)c3ccccc3n2)cc1` (stereo not shown) [Compound 2, N-(4-(4-((2-phenyl-2-(pyridin-2-yl)ethyl)amino)quinazolin-2-yl)phenyl)methanesulfonamide], the “DA Uptake Emax” value is 90 ± 3 % I and the EC50 came out at 50 ± 10 nM.

With `Cc1cc(NS(C)(=O)=O)ccc1-c1nc(NCC(c2ccncc2)c2ccncc2)c2ccccc2n1` [Compound 47, N-(4-(4-((2,2-di(pyridin-4-yl)ethyl)amino)quinazolin-2-yl)-3-methylphenyl)methanesulfonamide], the “DA Uptake Emax” value came to 67 ± 4 % I and the EC50 amounted to 84 ± 25 nM.

Turning to `CN(C)c1ccc(-c2nc(NCC(c3ccccc3)N3CCCCC3)c3ccccc3n2)cc1` (stereo not shown) [Compound 16, 2-(4-(dimethylamino)phenyl)-N-(2-phenyl-2-(piperidin-1-yl)ethyl)quinazolin-4-amine], the “DA Uptake Emax” value is listed as 88 ± 4 % I and the EC50 stood at 34 ± 9 nM.

As for `CN(C)c1ccc(-c2nc(NC(CCc3ccccc3)c3ccccc3)c3ccccc3n2)cc1` (stereo not shown) [Compound 43, 2-(4-(dimethylamino)phenyl)-N-(1,3-diphenylpropyl)quinazolin-4-amine], the “DA Uptake Emax” value is 70 ± 4 % I and the EC50 was 75 ± 22 nM.

Regarding `CN(C)c1ccc(-c2nc(NCC(Cc3ccccc3)c3ccccc3)c3ccccc3n2)cc1` (stereo not shown) [Compound 26, 2-(4-(dimethylamino)phenyl)-N-(2,3-diphenylpropyl)quinazolin-4-amine], the “DA Uptake Emax” value is listed as 78 ± 3 % I and the concentration for a half-maximal effect (EC50) came out at 39 ± 9 nM.

Regarding `CN(C)c1ccc(-c2nc(NC(Cc3ccccc3)c3ccccc3)c3ccccc3n2)cc1` (stereo not shown) [Compound 40, 2-(4-(dimethylamino)phenyl)-N-(1,2-diphenylethyl)quinazolin-4-amine], the “DA Uptake Emax” value is 72 ± 2 % I and the EC50 came out at 40 ± 8 nM.

For the compound `CN1CCN(C(CNc2nc(-c3ccc(N(C)C)cc3)nc3ccccc23)c2ccccc2)CC1` (stereo not shown) [Compound 22, 2-(4-(dimethylamino)phenyl)-N-(2-(4-methylpiperazin-1-yl)-2-phenylethyl)quinazolin-4-amine], the “DA Uptake Emax” value is listed as 91 ± 4 % I and the concentration for a half-maximal effect (EC50) worked out at 30 ± 8 nM.

`CS(=O)(=O)Nc1ccc(-c2nc(NCC(c3ccccn3)c3ccc[nH]3)c3ccccc3n2)cc1` (stereo not shown) [Compound 32, N-(4-(4-((2-(pyridin-2-yl)-2-(1H-pyrrol-2-yl)ethyl)amino)quinazolin-2-yl)phenyl)methanesulfonamide]: the “DA Uptake Emax” value is listed as 73 ± 3 % I and the EC50 was 379 ± 80 nM.

For `CN(C)c1ccc(-c2nc(NCC(c3ccccc3)N3CCCC3)c3ccccc3n2)cc1` (stereo not shown) [Compound 21, 2-(4-(dimethylamino)phenyl)-N-(2-phenyl-2-(pyrrolidin-1-yl)ethyl)quinazolin-4-amine], the “DA Uptake Emax” value came out at 92 ± 4 % I and the EC50 came to 112 ± 26 nM.

Regarding `CS(=O)(=O)Nc1ccc(-c2nc(NCC(c3ccccc3)n3ccnc3)c3ccccc3n2)cc1` (stereo not shown) [Compound 12, N-(4-(4-((2-(1H-imidazol-1-yl)-2-phenylethyl)amino)quinazolin-2-yl)phenyl)methanesulfonamide], the “DA Uptake Emax” value worked out at 70 ± 3 % I and the EC50 is 100 ± 22 nM.

Regarding `CN1CCN(C(CNc2nc(-c3ccc(NS(C)(=O)=O)cc3)nc3ccccc23)c2ccccc2)CC1` (stereo not shown) [Compound 23, N-(4-(4-((2-(4-methylpiperazin-1-yl)-2-phenylethyl)amino)quinazolin-2-yl)phenyl)methanesulfonamide], the “DA Uptake Emax” value came out at 77 ± 3 % I and the half-maximal effective concentration (EC50) amounted to 62 ± 15 nM.

For `CN(C)c1ccc(-c2nc(NCC(c3ccccc3)c3ncccn3)c3ccccc3n2)cc1` (stereo not shown) [Compound 9, 2-(4-(dimethylamino)phenyl)-N-(2-phenyl-2-(pyrimidin-2-yl)ethyl)quinazolin-4-amine], the “DA Uptake Emax” value is 91 ± 3 % I and the EC50 is 117 ± 22 nM.

On to `CS(=O)(=O)Nc1ccc(-c2nc(NCC(c3ccccc3)c3ncccn3)c3ccccc3n2)cc1` (stereo not shown) [Compound 8, N-(4-(4-((2-phenyl-2-(pyrimidin-2-yl)ethyl)amino)quinazolin-2-yl)phenyl)methanesulfonamide], for which the “DA Uptake Emax” value amounted to 88 ± 3 % I and the EC50 was 477 ± 75 nM.

For `CS(=O)(=O)Nc1ccc(-c2nc(NCC(c3ccccc3)N3CCOCC3)c3ccccc3n2)cc1` (stereo not shown) [Compound 19, N-(4-(4-((2-morpholino-2-phenylethyl)amino)quinazolin-2-yl)phenyl)methanesulfonamide], the “DA Uptake Emax” value came out at 71 ± 4 % I and the EC50 amounted to 43 ± 13 nM.

On to `CN(C)c1ccc(-c2nc(NCC(O)(c3ccccc3)c3ccccc3)c3ccccc3n2)cc1` [Compound 5, 2-((2-(4-(dimethylamino)phenyl)quinazolin-4-yl)amino)-1,1-diphenylethanol], for which the “DA Uptake Emax” value is given as 74 ± 2 % I and the concentration for a half-maximal effect (EC50) amounted to 6.7 ± 1.4 nM.

`CS(=O)(=O)Nc1ccc(-c2nc(NCC(Cc3ccccc3)c3ccccc3)c3ccccc3n2)cc1` (stereo not shown) [Compound 27, N-(4-(4-((2,3-diphenylpropyl)amino)quinazolin-2-yl)phenyl)methanesulfonamide]: the “DA Uptake Emax” value was 76 ± 2 % I and the EC50 was 58 ± 9 nM.

For the origin of these results see patent US10087148B2, “Quinazolines as biogenic amine transport modulators” (THE UNITED STATES OF AMERICA AS REPRESENTED BY THE …, priority 2014, dated 2018).
